# Measurements as given in US10975123B2, “Mutant Akt-specific capture agents, compositions, and methods of using and making” (California Institute of Technology, priority 2014, dated 2021).
# Positions count from the first letter of the chain named. “Also recorded” adds a separate entry of the source. Where a SMILES comes first, the peptide text is derived from it. [ ]: non-standard residue; d: D form.
# Tests used:
# [1] = target: T1, E17K 33-mer fragment (6His-tagged) (Homo sapiens, UniProt P31749, E17K/H13K); experiment: HPLC-detected immunoprecipitation (pulldown), E17K 33-mer; assay type: binding; conditions: 50 μM epitope, overnight 4° C., guanidine elution, in words
# T1 construct: made in house; host or cells: chemical synthesis (Fmoc SPPS)
# T1 sequence (P31749 1-33 H13K/E17K limits assumed): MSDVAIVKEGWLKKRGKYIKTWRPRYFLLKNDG
# From the text: (§1) The label-modified yleaf (SEQ ID NO: 43) peptide (FIG. 2a and FIG. 12) was subjected to a variety of binding assays against the synthesized WT and E17K 33-mer PHD fragments prepared without the biotin label and alkyne click handle. First, the yleaf (SEQ ID NO: 43) peptide was used in immunoprecipitation assays to pull-down either the WT or E17K mutant 6His-tagged (SEQ ID NO: 4) 33-mer peptide fragments (FIGS. 13 and 14), as opposed to the full-length proteins that were used to initially validate the candidates. Typical immunoprecipitation assays involve western blotting to estimate the amount of protein binding, but 33-mer peptide fragments are not easily quantified on a blot. Because of this, the amount of peptide epitope precipitated in these assays was quantified via injection on an analytical HPLC. These assays further confirmed preferential yleaf (SEQ ID NO: 43) ligand binding to the E17K 33-mer epitope relative to the WT epitope (FIG. 15).
# (§2) Pulldown assays with the biotinylated anchor and his-tagged 33-mer epitope were performed to verify epitope targeting. […] Because small peptide fragments like the 33-mer epitope are difficult to transfer to and detect on the nitrocellulose membrane as for a traditional Western blot, the amount of binding in these assays was detected via HPLC. […]
# [2] = target: full length Akt1E17K (Homo sapiens, UniProt P31749, E17K); experiment: Fluorescence polarization binding to full-length E17K Akt1; conditions: yleaf peptide 4, fluorescence polarization in solution, triplicate
# Chain of full length Akt1E17K (P31749 whole entry E17K): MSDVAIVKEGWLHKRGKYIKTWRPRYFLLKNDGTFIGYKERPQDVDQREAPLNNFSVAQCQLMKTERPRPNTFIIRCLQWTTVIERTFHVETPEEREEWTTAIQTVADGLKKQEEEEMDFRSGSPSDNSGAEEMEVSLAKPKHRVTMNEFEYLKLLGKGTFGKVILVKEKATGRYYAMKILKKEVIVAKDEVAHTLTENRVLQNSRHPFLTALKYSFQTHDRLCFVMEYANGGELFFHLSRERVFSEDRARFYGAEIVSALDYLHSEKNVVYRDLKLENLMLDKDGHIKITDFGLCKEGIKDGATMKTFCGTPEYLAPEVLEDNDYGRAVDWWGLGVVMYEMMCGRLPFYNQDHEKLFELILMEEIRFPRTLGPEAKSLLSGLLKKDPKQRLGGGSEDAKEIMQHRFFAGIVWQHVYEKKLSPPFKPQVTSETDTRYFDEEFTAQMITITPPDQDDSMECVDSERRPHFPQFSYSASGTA
# Method: FIG. 2: Anchor ligand structure and characterization. (FIG. 2A) The peptide anchor ligand, yleaf (SEQ ID NO: 43), which was discovered using the epitope-targeting technique. The different sets of R groups indicate the modifications that were made to perform the various experiments described. (FIG. 2B) Point ELISA for specificity obtained by immobilizing biotinylated yleaf (SEQ ID NO: 43) anchor ligand 2 onto a Neutravidin plate, then incubating with a 6 His-tagged epitope (“6 His” disclosed as SEQ ID NO: 4) 3. […] (FIG. 2C) Binding curves of yleaf (SEQ ID NO: 43) anchor ligand 4 to the full-length WT or E17K mutant Akt1 proteins obtained in solution by fluorescence polarization. A saturation point for the WT ligand was not reached due to the prohibitively high protein concentration required. (FIG. 2D) Full binding curves of yleaf (SEQ ID NO: 43) anchor ligand 4 to the WT or E17K mutant epitopes. […] All assays were performed in triplicate and averaged. Error bars indicate standard deviation.
# FIG. 5: The PCC agent triligand development strategy, structure, and inhibition data. (FIG. 5A) The yleaf (SEQ ID NO: 43) anchor ligand with a C-terminal alkyne 2 was screened against an azide-terminated library in the presence of the full-length PH Domain to identify a biligand. The biligand 7 was then appended with an N-terminal azide and screened against an alkyne library to identify a triligand. […]
# [3] = target: T2, WT 33-mer fragment (6His-tagged) (Homo sapiens, UniProt P31749, H13K); experiment: HPLC-detected immunoprecipitation (pulldown), WT 33-mer; assay type: binding; conditions: 50 μM epitope, overnight 4° C., guanidine elution, in words
# T2 construct: made in house; host or cells: chemical synthesis (Fmoc SPPS)
# T2 sequence (P31749 1-33 H13K limits assumed): T1 sequence (P31749 1-33 H13K/E17K limits assumed) with K17E
# From the text: as §1, §2
smiles,measurement,setting,value
CC(C)C[C@@H](NC(=O)[C@H](N)Cc1ccc(O)cc1)C(=O)N[C@H](CCC(=O)O)C(=O)N[C@H](C)C(=O)N[C@H](Cc1ccccc1)C(N)=O [yleaf] (H-[dY][dL][dE][dA][dF]-NH2; N-terminus assumed),amount of E17K 33-mer fragment pulled down (HPLC peak),[1],preferential; also recorded: pulls down the most of the E17K 33mer fragment
same,Kd,[2],54 ± 7 nM
same,amount of WT 33-mer fragment pulled down (HPLC peak),[3],the least of the WT fragment
